Data taken from article PMC10799085, “A miniaturized mode-of-action profiling platform enables high throughput characterization of the molecular and cellular dynamics of EZH2 inhibition” (Scientific Reports, 2024).
pIC50: −log10 of the molar value. Read-outs that look alike come from different tables or passages of the source.

Legend:
PRC2/EZH2+/+ [1] = target: T1, PRC2/EZH2+/+ (Homo sapiens, UniProt Q15910); assay: Kinetic probe competition assay (kPCA), TR-FRET; type: binding
T1 construct: purchased Active Motif
Method: (§1) Biotinylated PRC2 complexes and the fluorescent probe used in TR-FRET assays were generated as described in the supplementary methods section.
For measurements at 25, 30 and 37 °C, the temperature control functionality of the instrument was used.
TR-FRET kPCA traces were exported via Microsoft Excel to GraphPad Prism, where non-specific signals were subtracted and kinetic association competition traces were fitted to the Motulsky–Mahan model “kinetics of competitive binding” to obtain kon (k3), koff (k4) and KD parameters.

PRC2/EZH2Y641N = target: T2, PRC2/EZH2Y641N (Homo sapiens, UniProt Q15910, Y641N); assay: Kinetic probe competition assay (kPCA), TR-FRET; type: binding; conditions: calculated
T2 construct: Synthetic cDNA encoding N-terminal 6His-tagged full length EZH2^Y641N; 6His (N); made in house; host or cells: Sf9 insect cells (baculovirus co-infection)
Excerpt: as §1

PRC2/EZH2+/+ [2] = target: T1, PRC2/EZH2+/+; assay: Equilibrium binding thermodynamics (van't Hoff analysis of ePCA/kPCA at 5-37 °C); conditions: ePCA at 5-37 °C, wild type EZH2
Method: For thermodynamic analysis of the binding to EZH2+/+ the probe characterization, equilibrium and kinetic probe competition assays described above (previously conducted at 25 °C) were performed at 5, 15, 30 and 37 °C. […] For measurements at 25, 30 and 37 °C, the temperature control functionality of the instrument was used.
Equilibrium and kinetic binding constants obtained at various temperatures were used to determine the thermodynamic parameters by van’t Hoff and Eyring analysis, as described elsewhere for SPR and radioligand binding experiments[46],[69]. For the van’t Hoff thermodynamic analysis, changes in entropy ΔS° and enthalpy ΔH° were estimated by linear regression using the van’t Hoff equation. lnKA=ΔS^∘/R-ΔH^∘/RT,
Changes in Gibb’s free energy ΔG° were calculated according to. ΔG^∘T=ΔH^∘-T×ΔS^∘
Additionally, the possible temperature dependence of the thermodynamic parameters was considered using the integrated form of the van’t Hoff equation[47] for nonlinear regression to yield the changes in entropy, enthalpy, and heat capacity ΔCp: ln KA=-ΔH^∘T^∘/RT+ΔS^∘T^∘/R+ΔCp/R[T-T^∘/T-lnT/T^∘],

PRC2/EZH1 = target: T3, PRC2/EZH1 (Homo sapiens, UniProt Q92800); assay: Scintillation proximity assay (SPA) of H3K27 methylation; type: biochemical
T3 construct: N-terminal 6His-tagged full length EZH2^Y641N, EZH2^Y111L, EZH2^Y111D, EZH2^Y641N, Y661DEZH2, EZH1; 6His (N); made in house; host or cells: Sf9 insect cells (baculovirus co-infection)
Method: Assay-ready plates containing 50 nl of compound dilutions and DMSO controls were filled with 2.5 µL enzyme solution and pre-incubated for 15 min. […] Experiments were also performed without pre-incubation of enzyme and compounds. In this case, the substrate solution was added before enzyme. The reaction was stopped using 1.6 µg/µl streptavidin beads (Perkin Elmer) and 700 µM of SAM (Perkin Elmer). The plates were sealed with transparent foil.
For equilibrium binding competition (ePCA) and SPA enzyme inhibition assays, raw data import, quality control, normalization, and curve fitting to a 4-parameter logistic equation for IC50 determination were performed using the Genedata Screener® software (Genedata AG). ePCA Ki values were either calculated using the Cheng-Prussof equation[68] or with the GraphPad Prism model “One-site—Fit Ki”.

[3] = test system: H3K27me3 mark in MDA-MB-231 cells; assay: High content analysis (HCA) of cellular H3K27me3 mark, washout format; type: cell-based; conditions: for pIC50: H3K27 methylation HCA, read-out: Mean IC50
Method: In the low- and high-signal control wells, test compounds were replaced by 10 µM of EZH2 inhibitor (equal to unlabeled probe from ePCA and kPCA) or DMSO, respectively. […] After fixation, the cells were washed with PBS and incubated with 1% BSA blocking solution at RT for 1 h. Blocking solution was discarded, primary monoclonal antibody rabbit Tri-methyl-histone H3K27 (C36B11, Cell signaling) diluted 1:200 in blocking solution was added and incubated overnight at 4 °C. […] Afterwards, cells were washed three times with PBS and incubated at 4 °C until measuring. Fluorescence signals were captured by an Opera Phenix™ High Content Screening (HCA) system (Perkin Elmer) by 10× magnification. […] Microscopy images were initially visualized and preprocessed with MetaXpress High Content Image Acquisition & Analysis Software (Molecular Devices) as previously described. Raw data import, normalization, quality control and fitting curves for IC50 determination of tested compounds were done with Genedata Screener® for high-content screening. Wells with no recognizable signals were masked and the average intensity of the trimethylation signal was normalized to the DMSO control (0%).

KARPAS-422 cells = assay: Cellular proliferation assay (AlamarBlue, 144 h); type: cell-based; conditions: KARPAS-422 cells, 6-day (144 h), AlamarBlue; read-out: KARPAS (6-day) Anti-proliferation IC50
Method: Cell viability was determined by means of the AlamarBlue® reagent (Thermo Fisher Scientific) following instructions from the manufacturer. […] Anti-proliferative IC50s were calculated by fitting the normalized AlamarBlue® fluorescence values to a 4-parameter logistic equation using the Electronic Notebook (ELN) software from IDBS.

in vitro = in vitro ADME; conditions: 2 µM, 2 h, 37 °C, basolateral to apical
Method: Cells were kept at 37 °C in a humidified 5% CO2 atmosphere. Before the permeation assay was run, the culture medium was replaced by an FCS-free HEPES carbonate transport buffer (pH 7.2). For assessment of monolayer integrity, the transepithelial electrical resistance was measured. Test compounds were pre-dissolved in DMSO and added either to the apical or basolateral compartment at a final concentration of 2 µM. Before and after 2 h incubation at 37 °C, samples were taken from both compartments. Analysis of compound content was conducted after precipitation with methanol by LC/MS/MS analysis. Reference compounds were analyzed in parallel as assay control. Permeability (Papp) was calculated in the apical to basolateral (A → B) and basolateral to apical (B → A) directions. The efflux ratio basolateral (B) to apical (A) was calculated by dividing Papp B–A by Papp A–B.

CC[C@H](C)n1cc(C)c2c(C(=O)NCc3c(C)cc(C)[nH]c3=O)cc(-c3ccc(N4CCNCC4)nc3)cc21 [Compound 4, GSK126]
Calculated RT (PRC2/EZH2+/+ [1]; EZH2+/+ (+ H3K27me3)): 0.44 h
RT (Calculated) (PRC2/EZH2+/+ [1]; EZH2+/+ (- H3K27me3), 15 °C): 0.0145 h
RT (Calculated) (PRC2/EZH2+/+ [1]; EZH2+/+ (- H3K27me3), 30 °C): 0.031 h
RT (Calculated) (PRC2/EZH2+/+ [1]; EZH2+/+ (- H3K27me3), 37 °C): 0.0092 h
Calculated RT (PRC2/EZH2+/+ [1]; EZH2+/+ (- H3K27me3)): 0.06 h
Calculated RT (PRC2/EZH2Y641N; EZH2Y641N (+ H3K27me3)): 0.22 h
Calculated RT (PRC2/EZH2Y641N; EZH2Y641N (- H3K27me3)): 0.0666 h
binding driving force, polynomial van't Hoff analysis (PRC2/EZH2+/+ [2]): entropy-driven
IC50 (PRC2/EZH1; 0' enzyme:inhibitor pre-incubation, read-out: SPA Mean IC50 (M) - 0' enzyme:inhibitor pre-incubation EZH1): 1.1e-06 M
IC50 (PRC2/EZH1; 15' enzyme:inhibitor pre-incubation, read-out: SPA Mean IC50 (M) - 15' enzyme:inhibitor pre-incubation EZH1): 4.4e-07 M
IC50 (PRC2/EZH1; 60' enzyme:inhibitor pre-incubation, read-out: SPA Mean IC50 (M) - 60' enzyme:inhibitor pre-incubation EZH1): 1e-06 M
pIC50 ([3]; incubation time 0.5 h, washout time 71.5 h): 5.24
pIC50 ([3]; incubation time 1 h, washout time 71 h): 5.54
pIC50 ([3]; incubation time 2 h, washout time 70 h): 5.62
pIC50 ([3]; incubation time 4 h, washout time 68 h): 5.74
pIC50 ([3]; incubation time 24 h, washout time 48 h): 5.85
pIC50 ([3]; incubation time 48 h, washout time 24 h): 6.15
pIC50 ([3]; incubation time 72 h, washout time 0 h): 6.51
AUC (a.u.) ([3]; HCA H3K27 methylation washout pIC50 AUC over all incubation/washout times): 81.2 a.u.
pIC50 (KARPAS-422 cells): 6.55
PK Caco-2 Flux Papp B-A (mean) (in vitro): 9.838 ×10⁻⁶ cm/s
